Measurements published in US20060089400A1, “Novel spiro ketone and carboxylic acid derivatives as specific inhibitors for (po3h2) ser/(po3h2)thr-pro-specific peptidyl-prolylcis/trans-isomerases” (The Vernalis Group of Companies, priority 2002, published 2006).

These compounds were tested against T1, human Pin1 (recombinant from E. coli) (Homo sapiens, UniProt Q13526) (assay: protease-coupled PPIase assay, inhibition of hPin1). Conditions: protease-coupled PPlase assay; substrate Ac-Ala-Ala-(PO3H2)Ser-Pro-Arg-(4-)nitroanilide; trypsin; 2 nM enzyme; 35 mM HEPES pH 7.8; 10° C.; 5 min preincubation; read-out: hPin1-inhibition K1.
T1 construct: made in house; host or cells: E. coli
T1 sequence (Q13526 whole entry): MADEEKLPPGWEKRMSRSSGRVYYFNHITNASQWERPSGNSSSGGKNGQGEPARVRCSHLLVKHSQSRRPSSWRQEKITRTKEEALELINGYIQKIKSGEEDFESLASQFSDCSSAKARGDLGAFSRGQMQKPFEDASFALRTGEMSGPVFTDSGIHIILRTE
Format: biochemical
Text: As described in example 1, the peptidyl-prolyl-cis/trans-isomerase activity can be determined in the so-called protease coupled PPlase assay with the help of isomer-specific proteolysis and the suitable oligopeptide substrates and isomer-specific proteases. Other processes for the detection of PPlase activity are e.g. observing isomer-specific differences with respect to spectroscopic properties, their mobilities or the foldback catalysis of other proteins as well as isomer-specific chemical compounds when recording core resonance spectra.
If adding active components to one of the test systems listed above leads to a measurable decrease in the reaction speed catalysed by the respective PPlase, these active components are classed PPlase inhibitors, as is exemplarily shown in example 1. Assessment of the PPlase specificity of the inhibitor is carried out by testing different PPlases in the assay. By varying the concentration of the inhibitor and assessing the results measured with conventional processes, the corresponding inhibition constant (KI-value) can be determined. The concentration of the inhibitor which inhibits the PPlase-induced catalysis by 50% is called IC50-value.
Determining the inhibition constants of the selected compound according to the invention 1′,2′,3′H-spiro[indene-3′,3-(3H-5-methoxy-benzofurane-2-one)] vis-à-vis the PPlase hPinl by protease-coupled PPlase assay: • Buffer: 35 mM HEPES (pH 7.8), 1,200 μl • Substrate: Ac-Ala-Ala-(PO3H2)Ser-Pro-Arg-(4-)nitroanilide stock solution 10 mg/ml in 35 mM Hepes (pH 7.8), • Auxiliary protease: trypsin (Roth), stock solution 10 mg/ml in 35 mM Hepes (ph 7.8), concentration in the solution for measuring 0.34 mg/ml • Enzyme: human Pin1 (recombinant from E. coli), stock solution 0.55 μM, concentration in the solution for measuring: 2 nM • Effectors: effector stock solution 10 mM in DMSO, concentration in the solution for measuring between 1,000 and 0.01 μM • Temperature: 10° C.
In the incubation solution, the effectors were preincubated with the enzyme for 5 min, then 3.5 μl of the auxiliary protease trypsin were added and the reaction was started immediately afterwards by adding 3.5 μl substrate. The reaction was monitored at a wave length of 390 nm with the measuring instrument Hewlett Packard UVNIS spectrophotometer HP 8452A. The kinetic analysis of the data was carried out by “SigmaPlot” (Scientific Graphing System Vers. 2.0, Jandel Corp.).

Compound	Ki
COc1ccc2c(c1)C1(CCc3ccccc31)C(=O)O2 (stereo not drawn) [1′,2′,3′H-spiro[indene-3′,3-(3H-5-methoxy-benzofurane-2-one)]]	6 µM
O=C1Oc2ccccc2C12Cc1ccccc1C2 [1′,2′,3′H-sprio[indene-2′,3-(3H-benzofurane-2-one)]]	7 µM
COC(=O)C1(c2ccccc2O)CCc2ccccc21 (stereo not drawn)	27 µM
O=C1Oc2ccccc2C12CC=CC2 [1′,2′,3′H-spiro[cyclopentene-3′,3-(3H-benzofurane-2-one)]]	150 µM
COc1ccc(OC)c(C(=O)C2CCc3ccccc32)c1 (stereo not drawn) [1-(2,5-dimethoxyphenyl)-1′-indane-1′-1-methanone]	50 µM
COc1ccc2c(c1)C1(CC(C)c3ccccc31)C(=O)O2 (stereo not drawn) [1′,2′,3′H-sprio[1′-methyl-indene-3′,3-(3H-5-methoxy-benzofurane-2-one)]]	20 µM
